Measured values from patent US20090269351A1, “METHOD OF DIAGNOSING AND TREATING GLIOMA” (Genentech, Inc., priority 2006, published 2009).

Key:
tumor = conditions: nude mouse model, Teicher et al. 2002; cited from earlier work
GBM-derived neurospheres = experiment: Neurosphere growth with growth factors; format: cell-based, human; conditions: for neurosphere growth: maximal concentration of 20 ng/ml
From the text: Previously described GBM cell lines were used for the instant in vitro studies (Hartman et al., Internat. J. One. 15: 975-982 (1999)). To create neurosphere cultures, two cell lines (G63 and G69) were sorted using a CD133 cell isolation kit (Miltenyi Biotech) according to manufacturer's instructions, and maintained in culture as described for primary GBM specimens (Singh et al., Nature 432: 396-401 (2004)). All neurosphere cultures were maintained in Neurobasal medium (Invitrogen) with N2 supplement (Invitrogen) and NSF1 (Cambrex). For growth studies, both EGF and IGF2 were added at a concentration of 20 ng/ml. Neurospheres of primary GBM were obtained as unsorted dissociate of primary tumor (from Drs. M. Westphal and K. Lamszuz, Univ. Hamburg), expanded and maintained under the same conditions described for cel line-derived neurospheres. Neurosphere assays were performed in triplicate.
When IGF2-dependent neurospheres were disassociated and subjected to a proliferation assay using increasing concentrations of EGF or IGF2, both growth factors induced rapid growth. The growth rate based on growth factor dosage produced an identical growth curve for each growth factor (FIG. 3B).

Row | Molecule | anti-tumor effect (tumor) | neurosphere growth (GBM-derived neurospheres) | proliferative response of neurospheres compared with EGF (GBM-derived neurospheres; neurosphere system)
1 | Cl.Cn1cc(C2=C(c3cn(C4CCN(Cc5ccccn5)CC4)c4ccccc34)C(=O)NC2=O)c2ccccc21 [317615-HCL] | anti-tumor effect |  | 
2 | EGF: growth factor added to neurosphere cultures (NSDSECPLSHDGYCLHDGVCMYIEALDKYACNCVVGYIGERCQYRDLKWWELR; Epidermal growth factor; UniProt P01133 971-1023, looked up) |  | proliferated rapidly | 
3 | IGF2: Recombinant IGF2 (R&D Systems, 292-G2), growth factor |  | proliferated rapidly | indistinguishable from the response to EGF
